From publication PMC11775380, “Discovery of Novel Nav1.7-Selective Inhibitors with the 1H-Indole-3-Propionamide Scaffold for Effective Pain Relief” (Research, 2025)

How the values were obtained:
[1] = test system: acetic acid writhing pain model in mice; experiment: Acetic acid-induced writhing test; type: in vivo, ICR mice; conditions: 15 min before acetic acid, writhing counted 30 min
Text: Acute pain was a common type of pain with considerable value for drug development. Here, 2 acute inflammatory pain models were used to verify the acute analgesic effect of WN2-R. One such model, the acetic acid writhing pain model in mice, is a well-established acute visceral pain model. It simulates clinically relevant intestinal discomfort by stimulating the abdominal mucosa and intestine with acetic acid and has been extensively used to screen analgesic or anti-inflammatory drugs. Based on this model, we evaluated the acute analgesic effect of WN2-R using 2 drug delivery methods, i.g. and […] (n = 6). […] Furthermore, the analgesic effect of WN2-R at the same dose was similar to that of the positive control drug PF-05089771, with no significant difference between these two. […] Three male and 3 female ICR mice were used in the acetic acid-induced writhing test. Mice were preadministered with either WN2-R (5 mg/kg i.g., 1 mg/kg i.m.), PF05089771 (5 mg/kg i.g., 1 mg/kg i.m.), or saline 15 min before i.p. injection of 0.2 ml of acetic acid (0.8%, V/V). Each mouse was then placed in an individual open polyvinyl cage (30 cm × 40 cm × 30 cm). The number of writhing responses, characterized by a wave of abdominal muscle contraction followed by hind limb extension, was recorded for 30 min after acetic acid injection. These responses served as an indication of nociceptive intensity. The percentage of inhibition was calculated using the following equation: Inhibition% = (Writhing Numbervehicle – Writhing Numberdrug)/Writhing Numbervehicle × 100% [15, 47].

[2] = test system: formalin-induced acute inflammatory pain model in mice; experiment: Formalin-induced inflammation pain model; type: in vivo, ICR mice; conditions: 30 min before formalin
Experimental: The formalin-induced acute inflammatory pain model in mice, achieved through the plantar injection of formalin aqueous solution, is another widely used model for acute inflammatory pain. This model comprises 2 stages: an initial phase ([…]) where pain is triggered by formalin's direct stimulation of nociceptive receptors on sensory neurons, followed by a second phase (15 to 40 min) characterized by persistent inflammatory pain due to tissue damage. Similarly, both i.g. and i.m. methods were used to evaluate the effect of WN2-R in this model (n = 6) (Fig. 6B and I). […] These findings were consistent across repeated experiments.
To induce the pain response, 20 μl of formalin (5%, w/v) was injected subcutaneously into the right hind paw of ICR mice (3 male and 3 female). Prior to the formalin injection, mice were preadministered with WN2-R (5 mg/kg i.g., 1 mg/kg i.m.), PF05089771 (5 mg/kg i.g., 1 mg/kg i.m.), or saline 30 min beforehand. The duration of licking/biting the injected paw was recorded every 5 min, commencing immediately after the formalin injection and continuing for 40 min. Phase I and II in this assay corresponded to the nociceptive response observed between 0 and 5 min and between 10 and 40 min, respectively.

[3] = test system: CFA inflammatory pain model of mice; experiment: CFA-induced inflammatory (chronic) pain model; type: in vivo, ICR mice; conditions: for Paw withdrawal threshold (PWT) at 1.5 h: 1.5 h post drug, 24 h after CFA
Experimental: The chronic pain model of mice was often used to simulate persistent pain in humans. In this model, chronic persistent pain was induced by injecting complete Freund’s adjuvant (CFA) into the right hind foot of mice. […] The chronic analgesic potential of WN2-R was evaluated using both i.g. and i.m. methods (n = 4). When administered by i.g., the PWTs of the WN2-R group and the PF-05089771 group reached their peak at 1.5 and 1 h after administration, respectively, and subsequently declined to the same level as the saline group at 2.5 h (Fig. 6D). […] When administered i.m., both the WN2-R and PF-05089771 groups reached peak PWTs at 1.5 h, and declined to the saline group level at 3 h (Fig. 6K). […] The mechanical allodynia of ICR mice (2 male and 2 female) was assessed prior to model construction using von Frey fibers according to the up–down method. Mice with paw withdraw thresholds (PWTs) remarkably deviating from the mean value were excluded from further experiments. Subsequently, 15 μl of CFA was unilaterally injected into the intraplantar surface of the right hind paw of each mice. After 24 h, the PWTs of the mice were assessed. During the i.g. administration of drugs or saline, PWTs were measured 0, 0.5, 1, 1.5, 2, and 2.5 h post drugs/saline administration. Similarly, during i.m. administration, PWTs were measured at 0, 0.5, 1, 1.5, 2, 2.5, and 3 h post drugs/saline administration.

[4] = test system: SNI neuropathic pain model in mice; experiment: Spared nerve injury (SNI) neuropathic pain model; type: in vivo, C57 mice
Text: Peripheral nerve injury models were developed to investigate the mechanisms of neuropathic pain. One such model, the spared nerve injury (SNI) neuropathic pain model in mice, involved ligating and transecting the […] and tibial nerves within the […] nerve, while leaving the sural nerve untouched. […] To evaluate the neuroanalgesic potential of WN2-R in this model, both i.g. and i.m. routes were used to evaluate the neuroanalgesic effect of WN2-R in this model (n = 5). […] In contrast, PF-05089771 reached its peak at 1 h (PWTs = 1.08 g) but then rapidly lost its efficacy, resembling the saline control group after 1 h. Throughout the experiment, the PWTs of the WN2-R group remained consistently higher than that of the PF-05089771 group (Fig. 6F and G). […] Subsequently, the efficacy of both drugs gradually declined, converging with the saline group after 3 h. Throughout the entire dosing period, the PWTs of the WN2-R group were slightly higher than that of the PF-05089771 group (Fig. 6M and N). […] To elucidate the time course of pain hypersensitivity induced by SNI, the behavioral responses (mechanical testing with von Frey fibers) were measured before surgery (baseline value) in C57 mice (5 female). Then, the mice underwent SNI surgery, which involved ligation and axotomy of the common peroneal and tibial nerves, while sparing the sural nerve. Sham-operated mice served as controls, with their nerves remaining intact. To confirm the presence of pain hypersensitivity in the SNI group, behavioral testing was carried out 14 days after SNI in each animal. Post drugs/saline administration, PWTs were measured at 0, 0.5, 1, 1.5, 2, 2.5, and 3 h for the i.g. route, and at 0, 0.5, 1, 2, 3, and 4 h for the i.m. route.

[5] = set-up: method as in PMID 28682065; conditions: positive control drug; cited from earlier work

Nc1[nH]ncc1-c1cc(Cl)ccc1Oc1cc(F)c(S(=O)(=O)Nc2cscn2)cc1Cl [PF-05089771, 4-[2-(5-amino-1H-pyrazol-4-yl)-4-chlorophenoxy]-5-chloro-2-fluoro-N-1,3-thiazol-4-ylbenzenesulfonamide, reference compound]
Analgesic rate (normalized number of writhing) ([1]; i.g., 5 mg/kg): 53.5% | Analgesic rate (normalized number of writhing) ([1]; i.p. (method: 1 mg/kg i.m.)): 51.9% | Licking time in phase I vs saline ([2]; i.g., 5 mg/kg): significantly reduced licking time | Licking time in phase II vs saline ([2]; i.g., 5 mg/kg): decreased effectiveness | Licking time in phase I vs saline ([2]; i.m., 1 mg/kg): significantly reduced licking time | Licking time in phase II vs saline ([2]; i.m., 1 mg/kg): significantly reduced licking time | Time at which PWT declined to the saline group level ([3]; i.g.): 2.5 h | Time of peak PWT after administration ([3]; i.g.): 1 h | Paw withdrawal threshold (PWT) at 1.5 h ([3]; i.g.): 1.32 g | Time at which PWT declined to the saline group level ([3]; i.m.): 3 h | Time of peak PWT after administration ([3]; i.m.): 1.5 h | Paw withdrawal threshold (PWT) at 1.5 h ([3]; i.m.): 1.83 g | Time of peak efficacy ([4]; i.g.): 1 h | Paw withdrawal threshold (PWTs) ([4]; i.g., 1 h post drug application, 14 days after SNI): 1.08 g | Time after which efficacy converged with the saline group ([4]; i.m.): 3 h | Time of peak efficacy ([4]; i.m.): 1 h | Paw withdrawal threshold (PWTs) at peak efficacy ([4]; i.m., 1 h post drug application, 14 days after SNI): 1.30 g | F (bioavailability) [5]: 27%
